ChEMBL document CHEMBL1201862, “PubChem BioAssay data set” (2004)
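How tested: cells in 96-well plates exposed to compound for 48 hours at five concentrations. GI50 marks 50% less growth.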 The source made the active and inactive calls. Rule as the data show it: active = GI50 up to about 1.1 µM and inactive = higher.

How the values were obtained:
Assay in all cases: NCI tumour cell line growth inhibition, 48 h
SW-620 = test system: SW-620
OVCAR-3 = test system: OVCAR-3
SNB-19 = test system: SNB-19
RXF 393 = test system: RXF 393
UO-31 = test system: UO-31
SF-295 = test system: SF-295
SK-MEL-28 = test system: SK-MEL-28
HT-29 = test system: HT-29
HCT-15 = test system: HCT-15
K562 = test system: K562
HCC 2998 = test system: HCC 2998
MDA-N = test system: MDA-N
PC-3 = test system: PC-3
DU-145 = test system: DU-145
SK-OV-3 = test system: SK-OV-3
UACC-62 = test system: UACC-62
LOX IMVI = test system: LOX IMVI
SK-MEL-2 = test system: SK-MEL-2
UACC-257 = test system: UACC-257
SN12C = test system: SN12C
HL-60 = test system: HL-60
EKVX = test system: EKVX
HOP-62 = test system: HOP-62
OVCAR-8 = test system: OVCAR-8
A498 = test system: A498
HCT-116 = test system: HCT-116
TK-10 = test system: TK-10
NCI-H226 = test system: NCI-H226
SF-539 = test system: SF-539
MDA-MB-231 = test system: MDA-MB-231
COLO 205 = test system: COLO 205
NCI-H460 = test system: NCI-H460
CCRF-CEM = test system: CCRF-CEM
BT-549 = test system: BT-549
OVCAR-4 = test system: OVCAR-4
SNB-75 = test system: SNB-75
CAKI-1 = test system: CAKI-1
HOP-92 = test system: HOP-92
786-0 = test system: 786-0
NCI/ADR-RES = test system: NCI/ADR-RES
SR = test system: SR
KM12 = test system: KM12
IGROV-1 = test system: IGROV-1
SK-MEL-5 = test system: SK-MEL-5
ACHN = test system: ACHN
M14 = test system: M14
SF-268 = test system: SF-268
MOLT-4 = test system: MOLT-4
Hs-578T = test system: Hs-578T
MDA-MB-435 = test system: MDA-MB-435
MCF7 = test system: MCF7
Malme-3M = test system: Malme-3M
A549 = test system: A549
OVCAR-5 = test system: OVCAR-5
U-251 = test system: U-251
T47D = test system: T47D
NCI-H23 = test system: NCI-H23
NCI-H522 = test system: NCI-H522
RPMI-8226 = test system: RPMI-8226

Cc1cc(NS(=O)(=O)c2ccc(NO)cc2)no1
GI50 (SW-620): 29.2 µM (inactive) | GI50 (OVCAR-3): > 100 µM (inactive) | GI50 (SNB-19): > 100 µM (inactive) | GI50 (RXF 393): > 100 µM (inactive) | GI50 (UO-31): > 100 µM (inactive) | GI50 (SF-295): > 10 µM (inactive) | GI50 (SK-MEL-28): > 100 µM (inactive) | GI50 (HT-29): 41.3 µM (inactive) | GI50 (HCT-15): 32.4 µM | GI50 (K562): 14.7 µM (inactive) | GI50 (HCC 2998): > 100 µM (inactive) | GI50 (MDA-N): 20.7 µM (inactive) | GI50 (PC-3): > 100 µM (inactive) | GI50 (DU-145): > 100 µM (inactive) | GI50 (SK-OV-3): > 100 µM (inactive) | GI50 (UACC-62): 56.6 µM (inactive) | GI50 (LOX IMVI): 17.9 µM (inactive) | GI50 (SK-MEL-2): > 100 µM (inactive) | GI50 (UACC-257): > 100 µM (inactive) | GI50 (SN12C): 19.5 µM (inactive) | GI50 (HL-60): > 100 µM (inactive) | GI50 (EKVX): > 100 µM (inactive) | GI50 (HOP-62): > 100 µM (inactive) | GI50 (OVCAR-8): 41.1 µM (inactive) | GI50 (A498): > 100 µM (inactive) | GI50 (HCT-116): 28.5 µM (inactive) | GI50 (TK-10): > 100 µM (inactive) | GI50 (NCI-H226): > 100 µM (inactive) | GI50 (SF-539): 35.1 µM (inactive) | GI50 (MDA-MB-231): 34.7 µM (inactive) | GI50 (COLO 205): > 100 µM (inactive) | GI50 (NCI-H460): > 100 µM (inactive) | GI50 (CCRF-CEM): 8.65 µM (inactive) | GI50 (BT-549): > 100 µM (inactive) | GI50 (OVCAR-4): 67.3 µM (inactive) | GI50 (SNB-75): 43.7 µM (inactive) | GI50 (CAKI-1): > 100 µM (inactive) | GI50 (HOP-92): > 100 µM (inactive) | GI50 (786-0): 33 µM (inactive) | GI50 (NCI/ADR-RES): 39.5 µM (inactive) | GI50 (SR): 23.4 µM (inactive) | GI50 (KM12): 63.4 µM (inactive) | GI50 (IGROV-1): > 100 µM (inactive) | GI50 (SK-MEL-5): > 100 µM (inactive) | GI50 (ACHN): > 100 µM (inactive) | GI50 (M14): 70.6 µM (inactive) | GI50 (SF-268): > 100 µM (inactive) | GI50 (MOLT-4): 43 µM (inactive) | GI50 (Hs-578T): > 100 µM (inactive) | GI50 (MDA-MB-435): 19.5 µM (inactive) | GI50 (MCF7): 22 µM (inactive) | GI50 (Malme-3M): > 100 µM (inactive) | GI50 (A549): > 100 µM (inactive) | GI50 (OVCAR-5): > 100 µM (inactive)

O=c1c(/C=C/c2c(O)ccc3ccccc23)nnc2sc(-c3cccc(Br)c3)nn12
GI50 (SW-620): 25.6 µM (inactive) | GI50 (OVCAR-3): 3.89 µM (inactive) | GI50 (SNB-19): 39 µM (inactive) | GI50 (UO-31): 13.4 µM (inactive) | GI50 (SF-295): 32.7 µM (inactive) | GI50 (SK-MEL-28): 20.8 µM (inactive) | GI50 (HT-29): 29.9 µM (inactive) | GI50 (HCT-15): 6.78 µM | GI50 (K562): 19.9 µM (inactive) | GI50 (HCC 2998): 20.1 µM (inactive) | GI50 (U-251): 25.2 µM (inactive) | GI50 (MDA-N): 28.3 µM (inactive) | GI50 (PC-3): 22.4 µM (inactive) | GI50 (DU-145): 16.1 µM (inactive) | GI50 (SK-OV-3): 30.1 µM (inactive) | GI50 (UACC-62): 20.7 µM (inactive) | GI50 (LOX IMVI): 4.88 µM (inactive) | GI50 (SK-MEL-2): 23.6 µM (inactive) | GI50 (UACC-257): 23.7 µM (inactive) | GI50 (HL-60): 3.94 µM (inactive) | GI50 (EKVX): 16.7 µM (inactive) | GI50 (HOP-62): 24.8 µM (inactive) | GI50 (OVCAR-8): 3.44 µM (inactive) | GI50 (A498): 26.7 µM (inactive) | GI50 (HCT-116): 22.5 µM (inactive) | GI50 (SF-539): 63.8 µM (inactive) | GI50 (COLO 205): 39.2 µM (inactive) | GI50 (NCI-H460): 25.4 µM (inactive) | GI50 (CCRF-CEM): 3.82 µM (inactive) | GI50 (BT-549): 11.6 µM (inactive) | GI50 (OVCAR-4): 4.8 µM (inactive) | GI50 (T47D): 15 µM (inactive) | GI50 (NCI-H23): 14.7 µM (inactive) | GI50 (CAKI-1): 15.3 µM (inactive) | GI50 (786-0): 26.6 µM (inactive) | GI50 (NCI/ADR-RES): 22.8 µM (inactive) | GI50 (NCI-H522): 15.5 µM (inactive) | GI50 (SR): 4.72 µM (inactive) | GI50 (RPMI-8226): 10.3 µM (inactive) | GI50 (KM12): 20.7 µM (inactive) | GI50 (IGROV-1): 0.773 µM (active) | GI50 (SK-MEL-5): 17.8 µM (inactive) | GI50 (ACHN): 16.1 µM (inactive) | GI50 (M14): 15.8 µM (inactive) | GI50 (SF-268): 4.51 µM (inactive) | GI50 (MOLT-4): 3.4 µM (inactive) | GI50 (Hs-578T): 35.9 µM (inactive) | GI50 (MDA-MB-435): 21.1 µM (inactive) | GI50 (MCF7): 13.6 µM (inactive) | GI50 (Malme-3M): 23 µM (inactive) | GI50 (A549): 32.1 µM (inactive) | GI50 (OVCAR-5): 19.5 µM (inactive)
